The target in one assay is T1, CDK1 (cdc2)/cyclin B (Homo sapiens, UniProt P06493).
T1 construct: purchased New England Biolabs (Beverly Mass.)
Nature of the assay: Inhibition of CDK1(cdc2)/Cyclin B histone H1 kinase activity. Format: biochemical. The settings on record: apparent Ki, histone H1 substrate. Here is the method: Cyclin-dependent kinase activity was measured by quantifying the enzyme-catalyzed, time-dependent incorporation of radioactive phosphate from [^32P]ATP or [^33P]ATP into a protein substrate. Unless noted otherwise, assays were performed in 96-well plates in a total volume of 50 μL, in the presence of 10 mM HEPES (N-[2-hydroxyethyl]piperazine-N′-[2-ethanesulfonic acid]) (pH 7.4), 10 mM MgCl2, 25 μM adenosine triphosphate (ATP), 1 mg/mL ovalbumin, 5 μg/mL leupeptin, 1 mM dithiothreitol, 10 mM β-glycerophosphate, 0.1 mM sodium vanadate, 1 mM sodium fluoride, 2.5 mM ethylene glycol-bis(β-aminoethyl ether)-N,N,N′N′-tetraacetic acid (EGTA), 2% (v/v) dimethylsulfoxide, and 0.03-0.4 μCi [^32/33P]ATP per reaction. Reactions were initiated with enzyme, incubated at 30° C., and terminated after 20 minutes by the addition of ethylenediaminetetraacetic acid (EDTA) to 250 mM. The phosphorylated substrate was then captured on a nitrocellulose or phosphocellulose membrane using a 96-well filtration manifold, and unincorporated radioactivity was removed by repeated washing with 0.85% phosphoric acid. Radioactivity was quantified by exposing the dried membranes to a phosphorimager.
Inhibition was measured relative to control wells that contained all reaction components including 2% (v/v) DMSO but no compound, after subtraction of background radioactivity measured in the absence of enzyme. Apparent Ki values of discrete compounds were measured by assaying enzyme activity in the presence of different inhibitor compound concentrations and subtracting the background radioactivity measured in the absence of enzyme. The kinetic parameters (kcat, Km for ATP) were measured for each enzyme under the usual assay conditions by determining the dependence of initial rates on ATP concentration. […]
The complex of human CDK1 (cdc2) and cyclin B was purchased from New England Biolabs (Beverly Mass.). […] Phosphorylated histone substrate was captured by microfiltration on a phosphocellulose P81 membrane and quantified using a phosphorimager as described above.

The next assay concerns the target T2, CDK4/cyclin D3 (Homo sapiens, UniProt P11802).
T2 construct: made in house; host or cells: insect cells (baculovirus co-infection)
Description: Inhibition of CDK4/Cyclin D retinoblastoma kinase activity. Format: biochemical. As to conditions: apparent Ki, Rb fragment substrate. An outline of the steps: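 Apparent Ki derived by fitting activity at varied inhibitor concentrations to competitive (or competitive tight-binding) inhibition equations, background without enzyme subtracted. Radiometric filter-binding read-out of Rb(386-928) phosphorylation by 5 nM CDK4/cyclin D3(1-264); 25 μM ATP, pH 7.4, 2% DMSO, 30° C., 20 min, extended to 60 min for tight binders.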

The target in a further assay is T3, CDK2/cyclin A (Homo sapiens, UniProt P24941).
T3 construct: made in house; host or cells: CDK2: insect cells (baculovirus); cyclin A: E. coli, then limited proteolysis
Nature of the assay: Inhibition of CDK2/Cyclin A retinoblastoma kinase activity. The format is biochemical. As to conditions: apparent Ki, Rb fragment substrate. An outline of the steps:
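Radiometric [32/33P]ATP transfer to an Rb fragment by CDK2 (insect cell, 10 or 19 nM) complexed with proteolyzed cyclin A; pH 7.4 HEPES, 25 μM ATP, 2% DMSO, 30 °C, 60 or 75 min, filter capture. Apparent Ki from competitive or tight-binding inhibition fits.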

A further assay has as its system HCT-116 cells. Description: Inhibition of cell growth (MTT tetrazolium salt assay). As to conditions: Homo sapiens; for IC50: read-out: HCT116 IC50; for IC90: read-out: HCT116 IC90. Format: cell-based. The gist of the method:
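HCT-116 cells in McCoy's 5A were pre-incubated 4 h, then exposed to compounds in 0.5% DMSO for 4–6 days at 37 °C. MTT at 0.2 mg/mL final was added for 4 h and DMSO-solubilized formazan read at 540 nm. Values are relative to 0.5% DMSO-only controls.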

From patent US20040176431A1, “Antiproliferative 2-(sulfo-phenyl)-aminothiazole derivatives and pharmaceutical compositions, and methods for their use” (Pfizer, Inc., priority 2003, published 2004) come the findings set out here.

The structures appear in SMILES notation.

T2 sequence (P11802 whole entry): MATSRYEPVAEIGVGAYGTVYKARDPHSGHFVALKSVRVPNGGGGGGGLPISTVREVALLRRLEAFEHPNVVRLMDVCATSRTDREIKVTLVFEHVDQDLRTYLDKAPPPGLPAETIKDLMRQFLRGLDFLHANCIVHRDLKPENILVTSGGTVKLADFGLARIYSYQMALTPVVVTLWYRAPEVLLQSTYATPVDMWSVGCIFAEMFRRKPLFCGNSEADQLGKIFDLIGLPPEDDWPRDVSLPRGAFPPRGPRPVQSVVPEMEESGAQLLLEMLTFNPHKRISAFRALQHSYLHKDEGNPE
T2 sequence (P30281 1-264 partner limits assumed): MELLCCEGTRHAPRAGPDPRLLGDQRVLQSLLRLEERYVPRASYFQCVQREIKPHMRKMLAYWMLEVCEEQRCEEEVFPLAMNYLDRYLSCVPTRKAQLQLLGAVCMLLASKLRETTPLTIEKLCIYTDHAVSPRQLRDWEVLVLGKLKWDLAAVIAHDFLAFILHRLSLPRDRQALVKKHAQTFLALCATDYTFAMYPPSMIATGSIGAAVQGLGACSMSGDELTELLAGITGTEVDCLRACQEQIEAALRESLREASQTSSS
T1 sequence (P06493 whole entry): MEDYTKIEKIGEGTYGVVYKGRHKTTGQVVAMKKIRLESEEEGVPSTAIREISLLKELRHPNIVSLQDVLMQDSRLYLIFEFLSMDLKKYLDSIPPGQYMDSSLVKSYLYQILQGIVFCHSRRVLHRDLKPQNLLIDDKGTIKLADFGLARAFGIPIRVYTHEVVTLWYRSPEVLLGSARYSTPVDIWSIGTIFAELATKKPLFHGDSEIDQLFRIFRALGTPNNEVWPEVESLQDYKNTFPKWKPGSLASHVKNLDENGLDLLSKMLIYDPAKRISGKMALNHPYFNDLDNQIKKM
T1 sequence (P14635 whole entry partner): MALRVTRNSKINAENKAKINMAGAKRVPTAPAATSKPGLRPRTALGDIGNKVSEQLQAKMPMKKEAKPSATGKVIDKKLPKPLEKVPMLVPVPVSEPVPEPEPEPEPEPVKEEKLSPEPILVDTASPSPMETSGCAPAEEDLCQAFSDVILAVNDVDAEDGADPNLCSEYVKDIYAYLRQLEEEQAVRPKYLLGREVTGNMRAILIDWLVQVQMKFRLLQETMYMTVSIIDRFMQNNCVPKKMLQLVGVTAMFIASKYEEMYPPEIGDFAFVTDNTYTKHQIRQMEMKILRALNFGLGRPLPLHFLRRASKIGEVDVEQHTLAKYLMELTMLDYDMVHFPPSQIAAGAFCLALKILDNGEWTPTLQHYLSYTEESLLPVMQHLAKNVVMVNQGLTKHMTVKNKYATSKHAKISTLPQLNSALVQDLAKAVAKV

As for `CS(=O)(=O)c1ccc(Nc2nc(N)c(C(=O)c3c(Cl)cccc3Cl)s2)cc1` [AA(2), 4-Amino-5-(2,6-dichlorobenzoyl)-2-(4-methanesulfonyl-phenylamino)-thiazole], the values for the Ki on CDK1 (cdc2)/cyclin B, at CDK4/cyclin D3 and at CDK2/cyclin A were 93 nM, 42 nM and 138 nM, respectively. The IC50 in the assay on HCT-116 cells was determined as 4500 nM. Moreover, in the assay on HCT-116 cells, the IC90 turned out to be 18000 nM.
The matching figures for `Cc1ccc(CNS(=O)(=O)c2ccc(Nc3nc(N)c(C(=O)c4c(F)cccc4F)s3)cc2)o1` [Example A(11), 4-[4-Amino-5-(2,6-difluoro-benzoyl)-thiazol-2-ylamino]-N-(5-methyl-furan-2-ylmethyl)-benzenesulfonamide]: 3.9 nM, 28 nM, under 5 nM, 43 nM and 140 nM.
Turning to `CC(C)OCCNS(=O)(=O)c1ccc(Nc2nc(N)c(C(=O)c3c(F)cccc3F)s2)cc1` [Example A(17), 4-[4-Amino-5-(2,6-difluoro-benzoyl)-thiazol-2-ylamino]-N-(2-isopropoxy-ethyl)-benzenesulfonamide], at CDK4/cyclin D3, the Ki stood at 14 nM. In addition, the Ki at CDK2/cyclin A was determined as 2 nM. For the same compound, in the assay on HCT-116 cells, the IC50 was 140 nM and the IC90 was found to be 450 nM.
In the case of `Cc1ccc(CCNS(=O)(=O)c2ccc(Nc3nc(N)c(C(=O)c4c(F)cccc4F)s3)cc2)cc1` [Example A(18), 4-[4-Amino-5-(2,6-difluoro-benzoyl)-thiazol-2-ylamino]-N-(2-p-tolyl-ethyl)-benzenesulfonamide], the Ki was 24 nM on CDK4/cyclin D3 and 5.8 nM on CDK2/cyclin A. Moreover, the IC50 with HCT-116 cells stood at 1800 nM. Further, in the assay with HCT-116 cells, the IC90 was 3700 nM.
Consider `CCSCCNS(=O)(=O)c1ccc(Nc2nc(N)c(C(=O)c3c(F)cccc3F)s2)cc1` [Example A(19), 4-[4-Amino-5-(2,6-difluoro-benzoyl)-thiazol-2-ylamino]-N-(2-ethylsulfanyl-ethyl)-benzenesulfonamide], for which the Ki on CDK4/cyclin D3 worked out at 24 nM; at CDK2/cyclin A, 1.8 nM. Moreover, the IC50 with HCT-116 cells worked out at 400 nM. For the same compound, in the assay with HCT-116 cells, the IC90 came to 1300 nM.
The matching figures for `Nc1nc(Nc2ccc(S(=O)(=O)NCCc3ccc(F)cc3)cc2)sc1C(=O)c1c(F)cccc1F` [Example A(20), 4-[4-Amino-5-(2,6-difluoro-benzoyl)-thiazol-2-ylamino]-N-[2-(4-fluoro-phenyl)-ethyl]-benzenesulfonamide]: 14 nM, under 5 nM, 900 nM and 2600 nM.
The matching figures for `CN(C)CCCNS(=O)(=O)c1ccc(Nc2nc(N)c(C(=O)c3c(F)cccc3F)s2)cc1` [Example A(21), 4-[4-Amino-5-(2,6-difluoro-benzoyl)-thiazol-2-ylamino]-N-(3-dimethylamino-propyl)-benzenesulfonamide]: 6.8 nM, 14 nM, 1800 nM and 4400 nM.
The matching figures for `Cc1cc(F)c(C(=O)c2sc(Nc3ccc(S(=O)(=O)NCCOC(C)C)cc3)nc2N)c(F)c1` [Example CC(1), 4-[4-Amino-5-(2,6-difluoro-4-methyl-benzoyl)-thiazol-2-ylamino]-N-(2-isopropoxy-ethyl)-benzenesulfonamide]: 9.7 nM, 0.74 nM, 280 nM and 480 nM.
On to `CS(=O)(=O)c1ccc(Nc2nc(N)c(C(=O)c3c(F)cccc3F)s2)cc1` [Q(1), 1-[4-Amino-2-(4-methanesulfonyl-phenylamino)-thiazol-5-yl]-1-(2,6-difluoro-phenyl)-methanone], for which the Ki came out at 73 nM on CDK4/cyclin D3 and 210 nM on CDK2/cyclin A. Moreover, in the assay on HCT-116 cells, the IC50 was found to be 1300 nM. Moreover, in the assay on HCT-116 cells, the IC90 is 3800 nM.
As for `CSc1ccc(Nc2nc(N)c(C(=O)c3c(Cl)cccc3Cl)s2)cc1` [R(2), 4-Amino-5-(2,6-dichlorobenzoyl)-2-(4-methylthio-phenylamino)-thiazole], the Ki on CDK4/cyclin D3 amounted to 30 nM; at CDK2/cyclin A, 250 nM. The IC50 with HCT-116 cells stood at 12000 nM. The IC90 with HCT-116 cells is over 25000 nM.
As to `NC(=O)CSc1ccc(Nc2nc(N)c(C(=O)c3c(Cl)cccc3Cl)s2)cc1` [Y(1), 2-{4-[4-Amino-5-(2,6-dichloro-benzoyl)-thiazol-2-ylamino]-phenylthio}-acetamide], the Ki on CDK4/cyclin D3 came to 11 nM; at CDK2/cyclin A, 66 nM. The IC50 with HCT-116 cells amounted to 2300 nM. Also, the IC90 with HCT-116 cells turned out to be 6000 nM.
With `Nc1nc(Nc2ccc(SCCO)cc2)sc1C(=O)c1c(Cl)cccc1Cl` [Y(2), 4-Amino-5-(2,6-dichlorobenzoyl)-2-[4-(2-hydroxy-ethylthio)-phenylamino]-thiazole], the Ki at CDK4/cyclin D3 was determined as 7.6 nM. In addition, the Ki on CDK2/cyclin A is 140 nM. Besides, in the assay with HCT-116 cells, the IC50 turned out to be 3900 nM and the IC90 is 13000 nM.
The matching figures for `NC(=O)CSc1cccc(Nc2nc(N)c(C(=O)c3c(Cl)cccc3Cl)s2)c1` [Y(3), 2-{3-[4-Amino-5-(2,6-dichloro-benzoyl)-thiazol-2-ylamino]-phenylthio) acetamide]: 33 nM, 92 nM, 11000 nM and over 25000 nM.
As for `NC(=O)C[S+]([O-])c1ccc(Nc2nc(N)c(C(=O)c3c(Cl)cccc3Cl)s2)cc1` (centres unmarked) [Z(2), 2-(4-{4-Amino-5-(2,6-dichlorobenzoyl)-thiazol-2-ylamino}-benzenesulfinyl)-acetamide], the Ki on CDK4/cyclin D3 was determined as 15 nM. In addition, on CDK2/cyclin A, the Ki was 62 nM. Further, in the assay with HCT-116 cells, the concentration for half-maximal inhibition (IC50) stood at 18000 nM and the concentration for an effect of 90% (IC90) is over 25000 nM.
The matching figures for `Nc1nc(Nc2ccc([S+]([O-])CCO)cc2)sc1C(=O)c1c(Cl)cccc1Cl` (centres unmarked) [Z(3), 4-Amino-5-(2,6-dichlorobenzoyl)-2-[4-(2-hydroxy-ethanesulfinyl)-phenylamino]-thiazole]: 30 nM, 170 nM, 6800 nM and 16000 nM.
`C[S+]([O-])c1ccc(Nc2nc(N)c(C(=O)c3c(Cl)cccc3Cl)s2)cc1` (centres unmarked) [Z(4), 4-Amino-5-(2,6-dichlorobenzoyl)-2-(4-methanesulfinyl-phenylamino)-thiazole]: the Ki is 120 nM on CDK1 (cdc2)/cyclin B, 38 nM at CDK4/cyclin D3 and 303 nM at CDK2/cyclin A. Besides, the IC50 with HCT-116 cells stood at 4000 nM. Moreover, in the assay on HCT-116 cells, the IC90 was determined as 12000 nM.
For `NC(=O)C[S+]([O-])c1cccc(Nc2nc(N)c(C(=O)c3c(Cl)cccc3Cl)s2)c1` (centres unmarked) [Z(5), 2-{3-[4-Amino-5-(2,6-dichloro-benzoyl)-thiazol-2-ylamino]-benzenesulfinyl}-acetamide], the Ki at CDK4/cyclin D3 was 230 nM. In addition, on CDK2/cyclin A, the Ki worked out at 330 nM. In addition, in the assay on HCT-116 cells, the IC50 is over 25000 nM and the 90% effect concentration (IC90) is over 25000 nM.
